Assay: molar heat capacity at constant pressure
Details: 101.33 kPa, Small (less than 1 g) adiabatic calorimetry

CC(C)COCC(C)C [diisobutyl ether]
Details	molar heat capacity at constant pressure [J/K/mol]
140.67 K, Crystal 2	147.66
141.68 K, Crystal 2	148.47
142.69 K, Crystal 2	150.03
143.69 K, Crystal 2	151.09
144.7 K, Crystal 2	152.64
145.71 K, Crystal 2	153.6
146.72 K, Crystal 2	154.66
147.73 K, Crystal 2	156
148.74 K, Crystal 2	157.59
149.74 K, Crystal 2	159.31
150 K, Crystal 2	158.9
150.75 K, Crystal 2	160.48
151.76 K, Crystal 2	162.28
152.76 K, Crystal 2	163.63
153.77 K, Crystal 2	165.04
154.77 K, Crystal 2	166.47
155.77 K, Crystal 2	168.44
156.77 K, Crystal 2	170.7
157.77 K, Crystal 2	172.77
158.77 K, Crystal 2	174.55
159.76 K, Crystal 2	176.89
160 K, Crystal 2	171.1
160.22 K, Crystal 2	177.95
161.05 K, Crystal 2	179.83
161.87 K, Crystal 2	182.1
162.69 K, Crystal 2	184.81
163.5 K, Crystal 2	188
164.29 K, Crystal 2	190.62
165.08 K, Crystal 2	194.31
165.86 K, Crystal 2	198.38
166.64 K, Crystal 2	203.33
167.41 K, Crystal 2	209.11
168.16 K, Crystal 2	214.73
168.9 K, Crystal 2	223.05
169.63 K, Crystal 2	234.85
170.31 K, Crystal 2	282.57
170.71 K, Crystal 1	172.2
170.71 K, Crystal 2	184.2
171.96 K, Crystal 1	180.54
172.76 K, Crystal 1	180.42
173.54 K, Crystal 1	180.19
174.34 K, Crystal 1	181.2
175.14 K, Crystal 1	182.92
175.93 K, Crystal 1	183.75
176.72 K, Crystal 1	185.64
177.5 K, Crystal 1	187.45
178.28 K, Crystal 1	189.66
179.05 K, Crystal 1	192.53
179.81 K, Crystal 1	195.2
180 K, Crystal 1	193.8
190.4 K, Crystal 1	218
190.4 K, Liquid	241.1
200 K, Liquid	243.7
205.51 K, Liquid	245.31
207.14 K, Liquid	245.51
208.62 K, Liquid	246.05
210 K, Liquid	246.3
210.09 K, Liquid	246.27
211.57 K, Liquid	246.56
213.04 K, Liquid	247.06
214.48 K, Liquid	247.32
215.95 K, Liquid	247.78
217.42 K, Liquid	248.16
218.89 K, Liquid	248.58
220 K, Liquid	248.9
220.35 K, Liquid	248.91
221.82 K, Liquid	249.16
223.28 K, Liquid	249.85
224.74 K, Liquid	250.34
226.2 K, Liquid	250.85
227.65 K, Liquid	251.29
229.11 K, Liquid	251.85
230 K, Liquid	251.9
230.56 K, Liquid	252.2
232.02 K, Liquid	252.69
233.46 K, Liquid	252.85
234.91 K, Liquid	253.44
236.36 K, Liquid	253.83
237.75 K, Liquid	254.25
239.2 K, Liquid	254.81
240 K, Liquid	255
240.64 K, Liquid	255.42
242.08 K, Liquid	255.9
243.52 K, Liquid	256
244.96 K, Liquid	256.76
246.39 K, Liquid	256.99
247.83 K, Liquid	257.45
249.26 K, Liquid	257.99
250 K, Liquid	258.3
250.69 K, Liquid	258.39
252.11 K, Liquid	258.84
253.54 K, Liquid	259.49
254.96 K, Liquid	259.95
256.39 K, Liquid	260.62
257.8 K, Liquid	260.96
259.22 K, Liquid	261.75
260 K, Liquid	261.8
260.56 K, Liquid	261.97
261.97 K, Liquid	262.87
263.39 K, Liquid	262.95
264.79 K, Liquid	263.61
266.2 K, Liquid	263.86
267.6 K, Liquid	264.22
269 K, Liquid	264.8
270 K, Liquid	265.3
270.4 K, Liquid	265.39
271.8 K, Liquid	265.93
273.19 K, Liquid	266.68
274.58 K, Liquid	266.81
275.97 K, Liquid	267.53
277.36 K, Liquid	267.85
278.74 K, Liquid	268.3
280 K, Liquid	269
281.5 K, Liquid	269.6
282.78 K, Liquid	270.45
284.16 K, Liquid	270.8
285.53 K, Liquid	271.08
286.9 K, Liquid	271.46
288.26 K, Liquid	271.98
289.62 K, Liquid	272.75
290 K, Liquid	272.8
290.98 K, Liquid	273.36
292.34 K, Liquid	273.73
293.69 K, Liquid	274.04
295.04 K, Liquid	275.21
296.39 K, Liquid	275.08
297.73 K, Liquid	275.64
298.15 K, Liquid	276.08
299.07 K, Liquid	276.44
300 K, Liquid	276.8
300.41 K, Liquid	277.1
301.75 K, Liquid	277.51
303.04 K, Liquid	278.07
304.14 K, Liquid	278.56
305.42 K, Liquid	279.01
306.7 K, Liquid	279.35
307.97 K, Liquid	279.87
309.24 K, Liquid	280.81
310 K, Liquid	280.8
310.5 K, Liquid	280.87
311.76 K, Liquid	281.46
313.02 K, Liquid	282.03
314.27 K, Liquid	282.55
315.52 K, Liquid	282.93
316.76 K, Liquid	283.81
318 K, Liquid	284.25
319.23 K, Liquid	284.87
320 K, Liquid	285
320.46 K, Liquid	285.2
321.69 K, Liquid	285.88
322.91 K, Liquid	286.38
323.9 K, Liquid	286.65
325.11 K, Liquid	287.21
326.32 K, Liquid	287.74
327.53 K, Liquid	288.35
328.73 K, Liquid	288.89
329.92 K, Liquid	289.24
330 K, Liquid	289.5
331.11 K, Liquid	289.99
332.3 K, Liquid	290.62
333.48 K, Liquid	291.36
334.66 K, Liquid	291.41
335.83 K, Liquid	292.26
337 K, Liquid	292.85
338.16 K, Liquid	293.71
339.32 K, Liquid	294.5
340 K, Liquid	294.7
340.48 K, Liquid	295.14
343.62 K, Liquid	297.13
344.76 K, Liquid	297.38
345.9 K, Liquid	297.62
347.04 K, Liquid	298.5
348.17 K, Liquid	299
350 K, Liquid	300
350.41 K, Liquid	300.11
351.51 K, Liquid	300.37
352.61 K, Liquid	301.47
353.7 K, Liquid	302.2
354.79 K, Liquid	302.27
355.88 K, Liquid	302.92
356.96 K, Liquid	303.07
358.04 K, Liquid	303.49
359.11 K, Liquid	304.07
359.83 K, Liquid	304.07
360 K, Liquid	304.4
360.9 K, Liquid	304.89
361.96 K, Liquid	305.2
363.02 K, Liquid	305.35
364.07 K, Liquid	305.71
365.12 K, Liquid	305.76
366.14 K, Liquid	306.97
367.16 K, Liquid	307.23
368.17 K, Liquid	308
369.17 K, Liquid	308.72
370 K, Liquid	308.9
370.15 K, Liquid	309.38
371.14 K, Liquid	309.88
372.11 K, Liquid	310.26

Source: the NIST ThermoML archive (doi:10.1021/je800998u)
